These results are taken from patent US6982251B2, “Substituted 2-azetidinones useful as hypocholesterolemic agents” (Schering Corporation, priority 2000, dated 2006).

For one data set, the system named is human jejunum microsomes. As to the kind of experiment: Incubation with human jejunum microsomes supplemented with UDPGA. Format: in vitro ADME. As to conditions: No hydrolysis; after 2 hr incubation of human jejunum microsomes with 50 μM Compound 6A + UDPGA.
In the next data set the test system is Hyperlipidemic Hamster. Nature of the data set: In Vivo Assay of Hypolipidemic Agents Using the Hyperlipidemic Hamster. As to conditions: oral gavage once daily, 7 days, percent change versus control; for % Reduction in Plasma Cholesterol: cholesterol diet, negative = lowering; for % Reduction in Cholesterol Esters: hepatic cholesterol esters. Here is the method:
In Vivo Assay of Hypolipidemic Agents Using the Hyperlipidemic Hamster
Hamsters are separated into groups of six and given a controlled cholesterol diet (Purina Chow #5001 containing 0.5% cholesterol) for seven days. Diet consumption is monitored to determine dietary cholesterol exposure in the presence of test compounds. The animals are dosed with the test compound once daily beginning with the initiation of diet. Dosing is by oral gavage of 0.2 mL of corn oil alone (control group) or solution (or suspension) of test compound in corn oil. All animals moribund or in poor physical condition are euthanized. After seven days, the animals are anesthetized by IM injection of ketamine and sacrificed by decapitation. Blood is collected into Vacutainer™ tubes containing EDTA for plasma total cholesterol and triglyceride analysis and the liver excised for free and esterified cholesterol and triglyceride tissue analysis. Data is reported as percent reduction of plasma cholesterol and hepatic cholesterol esters versus control levels.
Data is reported as percent change (i.e., percent reduction in plasma cholesterol and in hepatic cholesterol esters) versus control, therefore, negative numbers indicate a positive cholesterol-lowering effect.

A further data set relates to β-Glucuronidase. As to the kind of experiment: β-Glucuronidase hydrolysis of the glucuronide mixture obtained from jejunum microsomes. Format: in vitro ADME. As to conditions: for Outcome of β-glucuronidase hydrolysis: after hydrolyzing for 18 h.

As to `O=C1[C@H](CC[C@H](O)c2ccc(F)cc2)[C@@H](c2ccc(O)cc2)N1c1ccc(F)cc1` [Compound 6A, ezetimibe], the “% of Compound 6A” value is 32.06% in the data set on human jejunum microsomes; 72.92% with β-Glucuronidase (Control: 180 min, No microsomes, No UDPGA); 68.10% in the data set on β-Glucuronidase (hydrolysis time 5 min); 61.88% in the data set on β-Glucuronidase (hydrolysis time 10 min); 66.02% with β-Glucuronidase (hydrolysis time 20 min); 80.14% in the data set with β-Glucuronidase (hydrolysis time 30 min). Also, in the data set on β-Glucuronidase (hydrolysis time 180 min), the “% of Compound 6A” value is reported as 84.67%. In the data set on Hyperlipidemic Hamster (dose 1 mg/kg), the “% Reduction in Plasma Cholesterol” value is −59%. Also, in the data set with Hyperlipidemic Hamster (dose 1 mg/kg), the “% Reduction in Cholesterol Esters” value is listed as −95%.

`O=C(O)C1OC(O[C@@H](CCC2C(=O)N(c3ccc(F)cc3)C2c2ccc(O)cc2)c2ccc(F)cc2)[C@H](O)[C@@H](O)[C@@H]1O` (some centres unmarked) [Compound III]: the “% of Compound III (Benzylic Glucuronide)” value came to 32.14% in the data set with human jejunum microsomes; 19.30% with β-Glucuronidase (hydrolysis time 5 min); 18.58% with β-Glucuronidase (hydrolysis time 10 min); 15.12% with β-Glucuronidase (hydrolysis time 20 min); 11.22% with β-Glucuronidase (hydrolysis time 30 min); 6.5% in the data set on β-Glucuronidase (hydrolysis time 180 min). Moreover, the “Outcome of β-glucuronidase hydrolysis” value with β-Glucuronidase is “hydrolyzed to form a single Compound 6A peak”.

In the case of `O=C(O)[C@H]1O[C@@H](Oc2ccc([C@@H]3[C@@H](CC[C@H](O)c4ccc(F)cc4)C(=O)N3c3ccc(F)cc3)cc2)[C@H](O)[C@@H](O)[C@@H]1O` [Example 1], the “% of Example 1 (Phenolic Glucuronide)” value came out at 31.68% in the data set with human jejunum microsomes; 2.23% in the data set with β-Glucuronidase (hydrolysis time 5 min); 1.04% in the data set on β-Glucuronidase (hydrolysis time 10 min); 0.77% in the data set with β-Glucuronidase (hydrolysis time 20 min); 0% in the data set with β-Glucuronidase (hydrolysis time 30 min); 0% in the data set on β-Glucuronidase (hydrolysis time 180 min). In the data set on Hyperlipidemic Hamster (dose 3 mg/kg), the “% Reduction in Plasma Cholesterol” value is recorded as −58%. Further, the “% Reduction in Cholesterol Esters” value in the data set with Hyperlipidemic Hamster (dose 3 mg/kg) is on record as −95%. For the same molecule, the “Relative rate of β-glucuronidase hydrolysis” value in the data set with β-Glucuronidase (5, 10, 20, 30 and 180 min) is recorded as “hydrolyzed at a faster rate than Compound III”. In the data set on β-Glucuronidase, the “Outcome of β-glucuronidase hydrolysis” value is given as “hydrolyzed to form a single Compound 6A peak”.
